US12558348B2, “Bioactive phytochemicals” (Phytoquest Limited, priority 2019, dated 2026)

Test system: sialidase in human THP-1 (monocyte-like) cell cultures
Assay: Endogenous (lysosomal) sialidase activity in LPS-stimulated THP-1 cells
Assay type: cell-based
Conditions: for RFU / Sialidase activity/mg protein: 2 hrs then 16 hours LPS; for Relative sialidase activity/mg protein: 16 hours LPS, relative to LPS control = 1.00
Method: The THP-1 cells were cultured in RPMI media supplemented with mercaptoethanol & glutamine to get 80% confluence in culture flask, then aspirated and centrifuged at 1500 rpm for 5 mins. The cell pellet was then resuspended in 1 ml of RPMI complete media and counted conventionally using a Hemocytometer. The cells (5×106) were incubated with PMA (10 ng/ml) in separate dishes to differentiate THP-1 cells. […] […] Post incubation, the cells were used to determine the sialidase activity.
The THP-1 cells were washed with phosphate-buffered saline (PBS) and resuspended in ice-cold buffer containing 0.25 M sucrose, 1 mM EDTA, and 0.2 mM phenylmethylsulfonyl fluoride. The cell suspension was sonicated on ice for 15 s on a low setting (6% amplitude) (Vibracell™; Sonics and Materials Inc., Newtown, CT) followed by centrifugation at 25,000 g for 15 min at 4° C. The resulting supernatant was used to determine the lysosomal sialidase activity. Protein quantification of the supernatant was performed using the Bio-Rad protein determination kit as described above. For the determination of lysosomal sialidase activity, 200 μg of total protein was mixed with 40 nmol of 4-methylumbelliferyl-α-N-acetyl-D-neuraminic acid (Sigma), the lysosomal sialidase-specific substrate, 10 μmol sodium acetate buffer, pH 4.6, and 200 μg of bovine serum albumin in a total volume of 200 μl. The sialidase reaction was allowed to proceed for 1 h at 37° C. and was terminated by the addition of 0.25 M glycine NaOH, pH 10.4. Released 4-methylumbelliferone was measured fluorometrically (Synergy 2 multimode microplate reader) at an excitation wavelength of 365 nm and emission wavelength of 448 nm.

## O=C(O)[C@@H]1NC[C@H](O)[C@@H](O)[C@@H]1O [idoBR1, (2R,3R,4R,5S)-3,4,5-trihydroxypiperidine-2-carboxylic acid]
12.5 μg/mL + LPS, 4 hours
  Sialidase activity/mg of protein: 91.30
12.5 μg/mL + LPS, 8 hours
  Sialidase activity/mg of protein: 129.95
12.5 μg/mL + LPS, 16 hours
  Sialidase activity/mg of protein: 186.34
12.5 μg/mL + LPS, 24 hours
  Sialidase activity/mg of protein: 108.47
12.5 μg/ml
  RFU: 1610 RFU
  Sialidase activity/mg protein: 186.34
  Relative sialidase activity/mg protein: 0.89
25 μg/mL + LPS, 4 hours
  Sialidase activity/mg of protein: 86.48
25 μg/mL + LPS, 8 hours
  Sialidase activity/mg of protein: 121.84
25 μg/mL + LPS, 16 hours
  Sialidase activity/mg of protein: 178.24
25 μg/mL + LPS, 24 hours
  Sialidase activity/mg of protein: 103.85
25 μg/ml
  RFU: 1540 RFU
  Sialidase activity/mg protein: 178.24
  Relative sialidase activity/mg protein: 0.86
50 μg/mL + LPS, 4 hours
  Sialidase activity/mg of protein: 79.35
50 μg/mL + LPS, 8 hours
  Sialidase activity/mg of protein: 109.77
50 μg/mL + LPS, 16 hours
  Sialidase activity/mg of protein: 130.21
50 μg/mL + LPS, 24 hours
  Sialidase activity/mg of protein: 88.83
50 μg/ml
  RFU: 1125 RFU
  Sialidase activity/mg protein: 130.21
  Relative sialidase activity/mg protein: 0.63
100 μg/mL + LPS, 4 hours
  Sialidase activity/mg of protein: 72.15
100 μg/mL + LPS, 8 hours
  Sialidase activity/mg of protein: 99.32
100 μg/mL + LPS, 16 hours
  Sialidase activity/mg of protein: 115.16
100 μg/mL + LPS, 24 hours
  Sialidase activity/mg of protein: 78.66
100 μg/ml
  RFU: 995 RFU
  Sialidase activity/mg protein: 115.16
  Relative sialidase activity/mg protein: 0.55
